According to patent US20220330549A1, “USE OF N-BENZYLBENZAMIDE-BASED COMPOUND AS HERBICIDE” (Northwest A&F University, priority 2020, published 2022):

How the values were obtained:
Type in all cases: in vivo
Barnyard grass [1] = test: Herbicidal activity test for indoor pre-emergence soil treatment; set-up: key: level 1-9; higher = more weed remaining vs blank control; conditions: 150 g a.i./ha, visual inspection 21 days after treatment
Experimental: (§1) The herbicidal activity test for indoor pre-emergence soil treatment was performed with some of the N-benzylbenzamide-based compounds of general formula I or II with reference to the method of NY/T 1155.3-2006. Neutral sandy loam soil having an organic content of ≤2% was added to fill ⅘ of the pot, and the soil was completely moistened by infiltrating irrigation from the bottom of the pot. The seeds of the test weed were evenly spread on the soil surface, and then covered by 0.5 cm to 2.0 cm of soil depending on the seed size. Representative compounds in the examples were used to prepare emulsifiable concentrates (10%), and spray treatments to the soil were performed 24 hours after the sowing with the test agents diluted with water, at a spraying dosage of 150 g(a.i.)/ha. Then, the results were investigated by visual inspection 21 days after the treatments. The herbicidal activity of the agent was evaluated on a scale of 1-9 levels according to the symptoms and severity of damage to the test weeds.
(§2) Level 2: equivalent to 0 to 2.5% of the weed in the blank control area;
(§3) Level 3: equivalent to 2.6 to 5% of the weed in the blank control area;
(§4) Level 4: equivalent to 5.1 to 10% of the weed in the blank control area;
(§5) Level 5: equivalent to 10.1 to 15% of the weed in the blank control area;
(§6) Level 6: equivalent to 15.1 to 25% of the weed in the blank control area;
(§7) Level 7: equivalent to 25.1 to 35% of the weed in the blank control area;
(§8) Level 8: equivalent to 35.1 to 67.5% of the weed in the blank control area; and
(§9) Level 9: equivalent to 67.6 to 100% of the weed in the blank control area.

Piemarker [2] = test: as above; set-up: key: level 1-9; higher = more weed remaining vs blank control; conditions: 150 g a.i./ha, visual inspection 21 days after treatment
Experimental: as §1, §2, §3, §4, §5, §6, §7, §8, §9

green bristlegrass [3] = test: as above; set-up: key: level 1-9; higher = more weed remaining vs blank control; conditions: 150 g a.i./ha, visual inspection 21 days after treatment
Experimental: as §1, §2, §3, §4, §5, §6, §7, §8, §9

Amaranthus retroflexus [4] = test: as above; set-up: key: 1-9 levels; higher = more weed remaining vs blank control; conditions: 150 g a.i./ha, visual inspection 21 days after treatment
Experimental: as §1, §2, §3, §4, §5, §6, §7, §8, §9

Digitaria sanguinalis [5] = test: as above; set-up: key: 1-9 levels; higher = more weed remaining vs blank control; conditions: 150 g a.i./ha, visual inspection 21 days after treatment
Experimental: as §1, §2, §3, §4, §5, §6, §7, §8, §9

Humulus scandens [6] = test: as above; conditions: 150 g a.i./ha, visual inspection 21 days after treatment
Experimental: as §1, §2, §3, §4, §5, §6, §7, §8, §9

Amaranthus retroflexus [7] = test: Herbicidal activity test for indoor post-emergence spraying on stems and leaves; set-up: key: grade level by weed remaining vs blank control, e.g. 5 = 10.1-15%; conditions: 150 g a.i./ha, visual inspection 21 days after treatment
Experimental: (§10) The post-emergence herbicidal activity test was performed with some of the N-benzylbenzamide-based compounds of general formula I or II with reference to the method of NY/T 1155.4-2006. […] After the sowing, the weed was moved to a greenhouse for regular cultivation. […] Then, the results were investigated by visual inspection 21 days after the treatments. […] Level 5: equivalent to 10.1 to 15% of the weed in the blank control area; Level 6: equivalent to 15.1 to 25% of the weed in the blank control area; Level 7: equivalent to 25.1 to 35% of the weed in the blank control area; Level 8: equivalent to 35.1 to 67.5% of the weed in the blank control area; and […]

Barnyard grass [8] = test: as above; set-up: key: grade level by weed remaining vs blank control, e.g. 5 = 10.1-15%; conditions: 150 g a.i./ha, visual inspection 21 days after treatment
Experimental: as §10

Digitaria sanguinalis [9] = test: as above; set-up: key: grade level by weed remaining vs blank control, e.g. 5 = 10.1-15%; conditions: 150 g a.i./ha, visual inspection 21 days after treatment
Experimental: as §10

Humulus scandens [10] = test: as above; set-up: key: grade level by weed remaining vs blank control, e.g. 5 = 10.1-15%; conditions: 150 g a.i./ha, visual inspection 21 days after treatment
Experimental: as §10

Piemarker [11] = test: as above; set-up: key: grade level by weed remaining vs blank control, e.g. 5 = 10.1-15%; conditions: 150 g a.i./ha, visual inspection 21 days after treatment
Experimental: as §10

green bristlegrass [12] = test: as above; set-up: key: grade level by weed remaining vs blank control, e.g. 5 = 10.1-15%; conditions: 150 g a.i./ha, visual inspection 21 days after treatment
Experimental: as §10

Broadleaf weed = test: Post-emergence herbicidal activity test in a paddy field; set-up: key: level scale; higher level = more weed left vs blank control; conditions: 150 g a.i./ha (penoxsulam control 250 g(a.i.)/h)
Experimental: (§11) The post-emergence herbicidal activity test was performed in a paddy field with some of the N-benzylbenzamide-based compounds of general formula I or II with reference to the method of GB/T 17980.40-2000. […] Spray treatments were performed in the stage where 4 leaves to 5 leaves were grown for the rice seedlings which was about 1 month after the sowing. Representative compounds in the examples were used to prepare emulsifiable concentrates (10%), and spray treatments were performed with the concentrates in water at a dosage of 150 g(a.i.)/ha, and repeated 4 times for each treatment, and the area was 50 m^2. 25 g/L of penoxsulam suspension was used as a control agent and applied at a dosage of 250 g(a.i.)/h. The results were investigated by a value estimating survey method 15 days and 30 days after the treatments. The relative weed population quantities were estimated by comparing each agent treated area with an adjacent blank control area, and the results of which were investigated with the following grading standard method using the overall coverage of the weed population as an indicator.
as §2, §3, §4, §5, §6, §7, §8, §9

Cyperaceae = test: as above; set-up: key: level scale; higher level = more weed left vs blank control; conditions: 150 g a.i./ha (penoxsulam control 250 g(a.i.)/h)
Experimental: as §11, §2, §3, §4, §5, §6, §7, §8, §9

Gramineae = test: as above; set-up: key: level scale; higher level = more weed left vs blank control; conditions: 150 g a.i./ha (penoxsulam control 250 g(a.i.)/h)
Experimental: as §11, §2, §3, §4, §5, §6, §7, §8, §9

Acalypha australis = test: Field test for weed control in a corn field; conditions: 150 g a.i./ha, after treatment
Experimental: (§12) The weed control efficacy field test was performed in a corn field with some of the N-benzylbenzamide-based compounds of general formula I or II with reference to the method of GB/T 17980.42-2000. […] Spray treatments were performed in the stage where 2 leaves to 5 leaves were grown for the corns after the sowing. Representative compounds in the examples were used to prepare emulsifiable concentrates (10%), and spray treatments were performed with the concentrates in water at a dosage of 150 g(a.i.)/ha, and repeated 4 times for each treatment, and the area was 20 m^2. Oil dispersion with 25% of mesotrione was used as a control agent and applied at a dosage of 150 g(a.i.)/h. […] The herbicidal activities of the agents were evaluated on a scale of 1-9 levels according to the symptoms and severity of damage to the test weeds.
as §2, §3, §4, §5, §6, §7, §8, §9

Amaranthus retroflexus [13] = test: Field test for weed control in a corn field; conditions: 150 g a.i./ha, 30 days after treatment
Experimental: as §12, §2, §3, §4, §5, §6, §7, §8, §9

Barnyard grass [14] = test: Field test for weed control in a corn field; conditions: 150 g a.i./ha, 30 days after treatment
Experimental: as §12, §2, §3, §4, §5, §6, §7, §8, §9

Chenopodium album = test: Field test for weed control in a corn field; conditions: 150 g a.i./ha, after treatment
Experimental: as §12, §2, §3, §4, §5, §6, §7, §8, §9

Convolvulus arvensis = test: Field test for weed control in a corn field; conditions: 150 g a.i./ha, after treatment
Experimental: as §12, §2, §3, §4, §5, §6, §7, §8, §9

Digitaria sanguinalis [15] = test: Field test for weed control in a corn field; conditions: 150 g a.i./ha, after treatment
Experimental: as §12, §2, §3, §4, §5, §6, §7, §8, §9

Portulaca oleracea = test: Field test for weed control in a corn field; conditions: 150 g a.i./ha, after treatment
Experimental: as §12, §2, §3, §4, §5, §6, §7, §8, §9

Solanum nigrum = test: Field test for weed control in a corn field; conditions: 150 g a.i./ha, 30 days after treatment
Experimental: as §12, §2, §3, §4, §5, §6, §7, §8, §9

goosegrass = test: Field test for weed control in a corn field; conditions: 150 g a.i./ha, after treatment
Experimental: as §12, §2, §3, §4, §5, §6, §7, §8, §9

green bristlegrass [16] = test: Field test for weed control in a corn field; conditions: 150 g a.i./ha, after treatment
Experimental: as §12, §2, §3, §4, §5, §6, §7, §8, §9

nutgrass flatsedge = test: Field test for weed control in a corn field; conditions: 150 g a.i./ha, after treatment
Experimental: as §12, §2, §3, §4, §5, §6, §7, §8, §9

Compound | Herbicidal Activity Barnyard grass (Barnyard grass [1]) | Herbicidal Activity Piemarker (Piemarker [2]) | Herbicidal Activity Green bristlegrass (green bristlegrass [3]) | Herbicidal Activity Amaranthus retroflexus (Amaranthus retroflexus [4]) | Herbicidal Activity Digitaria sanguinalis (Digitaria sanguinalis [5]) | Herbicidal Activity Humulus scandens (Humulus scandens [6]) | Herbicidal Activity Amaranthus retroflexus (Amaranthus retroflexus [7]) | Herbicidal Activity Barnyard grass (Barnyard grass [8]) | Herbicidal Activity Digitaria sanguinalis (Digitaria sanguinalis [9]) | Herbicidal Activity Humulus scandens (Humulus scandens [10]) | Herbicidal Activity Piemarker (Piemarker [11]) | Herbicidal Activity Green bristlegrass (green bristlegrass [12]) | Herbicidal activity 15 days after treatment Broadleaf weed (Broadleaf weed) | Herbicidal activity 30 days after treatment Broadleaf weed (Broadleaf weed) | Herbicidal activity 15 days after treatment Cyperaceae (Cyperaceae) | Herbicidal activity 30 days after treatment Cyperaceae (Cyperaceae) | Herbicidal activity 15 days after treatment Gramineae (Gramineae) | Herbicidal activity 30 days after treatment Gramineae (Gramineae) | Post-emergence weed control effect, Acalypha australis (Acalypha australis) | Post-emergence weed control effect, Amaranthus retroflexus (Amaranthus retroflexus [13]) | also measured
COc1ccccc1C(=O)NCc1cc(F)cc(Cl)c1 [Compound A07, N-(3-chloro-5-fluorobenzyl)-2-methoxybenzamide] | 1 | 1 | 2 (equivalent to 0 to 2.5% of the weed in the blank control area) | 1 | 1 | 3 (equivalent to 2.6 to 5% of the weed in the blank control area) | 1 | 1 | 1 | 1 | 1 | 2 (equivalent to 0 to 2.5% of the weed in the blank control area) | 2 (equivalent to 0 to 2.5% of the weed in the blank control area) | 1 | 1 | 2 (equivalent to 0 to 2.5% of the weed in the blank control area) | 2 (equivalent to 0 to 2.5% of the weed in the blank control area) | 2 (equivalent to 0 to 2.5% of the weed in the blank control area) | 2 (equivalent to 0 to 2.5% of the weed in the blank control area) | 1 | Post-emergence weed control effect, Barnyard grass (Barnyard grass [14]): 2 (equivalent to 0 to 2.5% of the weed in the blank control area); Post-emergence weed control effect, Chenopodium album (Chenopodium album): 1; Post-emergence weed control effect, Convolvulus arvensis (Convolvulus arvensis): 1; Post-emergence weed control effect, Digitaria sanguinalis (Digitaria sanguinalis [15]): 2 (equivalent to 0 to 2.5% of the weed in the blank control area); Post-emergence weed control effect, Portulaca oleracea (Portulaca oleracea): 1; Post-emergence weed control effect, Solanum nigrum (Solanum nigrum): 2 (equivalent to 0 to 2.5% of the weed in the blank control area); Post-emergence weed control effect, Goose grass (goosegrass): 2 (equivalent to 0 to 2.5% of the weed in the blank control area); Post-emergence weed control effect, Green bristlegrass (green bristlegrass [16]): 2 (equivalent to 0 to 2.5% of the weed in the blank control area); Post-emergence weed control effect, Nutgrass flatsedge (nutgrass flatsedge): 2 (equivalent to 0 to 2.5% of the weed in the blank control area)
COc1ccccc1C(=O)NCc1cccc(Cl)c1 [Compound A09, N-(3-chlorobenzyl)-2-methoxybenzamide] | 1 | 1 | 2 (equivalent to 0 to 2.5% of the weed in the blank control area) | 2 (equivalent to 0 to 2.5% of the weed in the blank control area) | 2 (equivalent to 0 to 2.5% of the weed in the blank control area) | 3 (equivalent to 2.6 to 5% of the weed in the blank control area) | 1 | 1 | 1 | 1 | 1 | 2 (equivalent to 0 to 2.5% of the weed in the blank control area) | 2 (equivalent to 0 to 2.5% of the weed in the blank control area) | 2 (equivalent to 0 to 2.5% of the weed in the blank control area) | 1 | 2 (equivalent to 0 to 2.5% of the weed in the blank control area) | 2 (equivalent to 0 to 2.5% of the weed in the blank control area) | 2 (equivalent to 0 to 2.5% of the weed in the blank control area) | 2 (equivalent to 0 to 2.5% of the weed in the blank control area) | 1 | Post-emergence weed control effect, Barnyard grass (Barnyard grass [14]): 2 (equivalent to 0 to 2.5% of the weed in the blank control area); Post-emergence weed control effect, Chenopodium album (Chenopodium album): 1; Post-emergence weed control effect, Convolvulus arvensis (Convolvulus arvensis): 2 (equivalent to 0 to 2.5% of the weed in the blank control area); Post-emergence weed control effect, Digitaria sanguinalis (Digitaria sanguinalis [15]): 2 (equivalent to 0 to 2.5% of the weed in the blank control area); Post-emergence weed control effect, Portulaca oleracea (Portulaca oleracea): 1; Post-emergence weed control effect, Solanum nigrum (Solanum nigrum): 2 (equivalent to 0 to 2.5% of the weed in the blank control area); Post-emergence weed control effect, Goose grass (goosegrass): 1; Post-emergence weed control effect, Green bristlegrass (green bristlegrass [16]): 2 (equivalent to 0 to 2.5% of the weed in the blank control area); Post-emergence weed control effect, Nutgrass flatsedge (nutgrass flatsedge): 2 (equivalent to 0 to 2.5% of the weed in the blank control area)
